Tests used:
[1] = biological target: T1, human mGluR2 receptor (Homo sapiens, UniProt Q14416); experiment: [35S]GTPγS binding assay (GTPγS-PAM): positive allosteric modulation in presence of glutamate at EC25, membranes from transfected CHO cells; format: biochemical; conditions: in presence of mGluR2 agonist glutamate at predetermined EC25 concentration, averages of duplicate values of 11-concentration response curves; for EC50: read-out: GTPgS - hR2 PAM pEC50 (converted)
T1 construct: expressed in transfected cells; host or cells: CHO cells (membrane preparation)
In short: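 Potentiation was read as filter-retained [35S]GTPγS (0.1 nM final, 30 min, 30° C.) after a 30 min, 30° C. preincubation of human mGluR2 CHO membranes (15 μg/well) with EC25 glutamate and 11 modulator concentrations spanning 0.3 nM-50 μM. The buffer was 50 mM HEPES pH 7.4, NaCl, MgCl2, 50 μM GDP and saponin. Cold 10 μM GTP defined nonspecific binding; data were fitted by a four-parameter logistic.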

T1 sequence (Q14416 19-872): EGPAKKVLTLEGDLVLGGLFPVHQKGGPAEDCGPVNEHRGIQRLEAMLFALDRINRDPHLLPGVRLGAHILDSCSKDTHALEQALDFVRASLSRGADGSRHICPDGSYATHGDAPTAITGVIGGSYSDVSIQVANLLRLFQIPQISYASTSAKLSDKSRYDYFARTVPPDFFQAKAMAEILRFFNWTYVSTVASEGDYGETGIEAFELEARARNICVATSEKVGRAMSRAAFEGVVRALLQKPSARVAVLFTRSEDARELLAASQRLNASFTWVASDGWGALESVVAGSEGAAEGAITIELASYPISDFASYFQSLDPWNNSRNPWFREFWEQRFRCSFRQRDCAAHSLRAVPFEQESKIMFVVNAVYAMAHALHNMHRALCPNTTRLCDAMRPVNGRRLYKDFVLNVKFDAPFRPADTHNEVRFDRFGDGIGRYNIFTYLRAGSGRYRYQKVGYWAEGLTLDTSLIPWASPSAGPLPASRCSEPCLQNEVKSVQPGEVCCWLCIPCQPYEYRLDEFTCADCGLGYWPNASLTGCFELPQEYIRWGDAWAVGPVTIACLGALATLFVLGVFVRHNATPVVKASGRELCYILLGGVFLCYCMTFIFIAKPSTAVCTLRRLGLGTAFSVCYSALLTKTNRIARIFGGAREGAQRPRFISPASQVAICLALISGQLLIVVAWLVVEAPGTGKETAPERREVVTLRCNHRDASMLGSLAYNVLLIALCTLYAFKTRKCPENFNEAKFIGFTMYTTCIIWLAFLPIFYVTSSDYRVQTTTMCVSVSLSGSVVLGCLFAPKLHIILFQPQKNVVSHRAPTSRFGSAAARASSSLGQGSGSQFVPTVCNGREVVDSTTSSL

Row | GTPgS - hR2 PAM pEC50 [1] | melting point [°C] | EC50 [1] [nM] | Compound
1 |  | 132 | 2510 | CC(C)CCn1ccc(-c2ccc(OCC#N)cc2)c(C#N)c1=O [1-131]
2 |  | 294 | 79.4 | CC(C)CCn1ccc(-c2ccc(OCC3CC3)c(Cl)c2)c(C#N)c1=O [1-134]
3 |  | 118 | 79.4 | COc1cccc(Oc2ccc(-c3ccn(CCC(C)C)c(=O)c3C#N)cc2)c1 [1-143]
4 |  | 100 | 63.1 | COc1cccc(COc2ccc(-c3ccn(CCC(C)C)c(=O)c3C#N)cc2)c1 [1-144]
5 |  | 212 | 39.8 | COc1ccc(COc2ccc(-c3ccn(CCC(C)C)c(=O)c3C#N)cc2)cc1 [1-145]
6 |  | 139 | 63.1 | CC(C)CCn1ccc(-c2ccc(OCc3cccc(F)c3)cc2)c(C#N)c1=O [1-146]
7 |  | 146 | 79.4 | CC(C)CCn1ccc(-c2ccc(OCc3ccc(F)cc3)cc2)c(C#N)c1=O [1-147]
8 |  | 173 | 50.1 | CC(C)CCn1ccc(-c2ccc(OCc3ccccc3)c(F)c2)c(C#N)c1=O [1-148]
9 |  | 120 | 50.1 | CC(C)CCn1ccc(-c2ccc(OCc3cccc(Cl)c3)cc2)c(C#N)c1=O [1-149]
10 |  | 177 | 79.4 | CC(C)CCn1ccc(-c2ccc(OCc3ccccc3)c(Cl)c2)c(C#N)c1=O [1-150]
11 |  | 154 | 39.8 | CC(C)CCn1ccc(-c2ccc(OCc3cccc(C#N)c3)cc2)c(C#N)c1=O [1-151]
12 |  | 193 | 100 | CC(C)CCn1ccc(-c2ccc(Oc3ccc(C#N)cc3)cc2)c(C#N)c1=O [1-152]

Further lines, the compound ahead of its results:

Row | Compound | GTPgS - hR2 PAM pEC50 [1] | melting point [°C] | EC50 [1] [nM]
13 | COc1cccc(-c2ccn(CCC(C)C)c(=O)c2C#N)c1 [1-101] | 5.5 | 96 | 
14 | COCc1ccc(-c2ccn(CCC(C)C)c(=O)c2C#N)cc1 [1-103, 3-cyano-4-(4-methoxymethylphenyl)-1-(3-methylbutyl)pyridine-2(1H)-one] |  | 91 | 2000
15 | CCCOc1ccc(-c2ccn(CCC(C)C)c(=O)c2C#N)cc1 [1-105] |  | 107 | 398
16 | COCc1cccc(-c2ccn(CCC(C)C)c(=O)c2C#N)c1 [1-107] |  | 67 | 3160
17 | COc1ccc(-c2ccn(CCC(C)C)c(=O)c2C#N)cc1OC [1-110, 4-(3,4-dimethoxyphenyl)-3-cyano-1-(3-methylbutyl)pyridine-2(1H)-one] |  | 52 | 2510
18 | CC(C)CCn1ccc(-c2ccc(OC(C)C)cc2)c(C#N)c1=O [1-111] |  | 129 | 316
19 | COc1ccc(-c2ccn(CCC(C)C)c(=O)c2C#N)cc1Cl [1-112] |  | 149 | 316
20 | COc1ccc(-c2ccn(CCC(C)C)c(=O)c2C#N)c(F)c1 [1-113, 3-cyano-4-(2-fluoro-4-methoxyphenyl)-1-(3-methylbutyl)pyridine-2(1H)-one] |  | 65 | 631
21 | COc1ccc(-c2ccn(CCC(C)C)c(=O)c2C#N)cc1F [1-114, 3-cyano-4-(3-fluoro-4-methoxyphenyl)-1-(3-methylbutyl)pyridine-2(1)-one] |  | 133 | 1000
22 | CCC(C)Oc1ccc(-c2ccn(CCC(C)C)c(=O)c2C#N)cc1F (stereo not drawn) [1-115] |  | 154 | 100
23 | CC(C)CCn1ccc(-c2ccc(OC(C)C)c(Cl)c2)c(C#N)c1=O [1-117] |  | 166 | 63.1
24 | CC(C)CCn1ccc(-c2ccc(OC(F)(F)F)cc2)c(C#N)c1=O [1-120] |  | 122 | 501
25 | CC(C)CCn1ccc(-c2ccc(OCC(F)F)c(Cl)c2)c(C#N)c1=O [1-122] |  | 131 | 1000
26 | CC(C)CCn1ccc(-c2ccc(OCC(F)(F)F)c(Cl)c2)c(C#N)c1=O [1-123] |  | 189 | 158
27 | CC(=O)NCCOc1ccc(-c2ccn(CCC(C)C)c(=O)c2C#N)cc1 [1-128] |  | 107 | 3160
